What was measured:
[1] = test system: subjects having secondary (AA) amyloidosis; experiment: Randomized, double-blind, placebo-controlled 24-month efficacy and safety study of PDS in secondary (AA) amyloidosis; type: in vivo, human
Experimental: A multicenter, multinational, randomized, double-blind, placebo-controlled, and parallel-design study to assess the efficacy and safety of 1,3-propanedisulfonic acid disodium salt (PDS) in subjects having secondary (AA) amyloidosis is conducted. […] If ClCr decreases or increases to the next lower or higher range level, the dose regimen is adjusted accordingly. Subject medication is administered orally (capsule). Each patient is evaluated on 16 occasions, including on-site visits at months 0 (baseline), 1, 4, 8, 12, 16, 20 and 24.
The volume of urine is recorded in the case report form at study site and an aliquot of urine is sent to the central laboratory for determination of urinary creatinine. A blood sample is collected to measure serum creatinine. The creatinine clearance (ClCr) is calculated using the following formula and recorded in the case report form: […]
The creatinine clearance normalized for body surface area is calculated by dividing the creatinine clearance by the body surface area.
Subjects are classified into three categories based on a composite assessment of renal function at the end of the 24 month treatment period compared to baseline. […] Subjects are classified as “improved” if the following clinical milestones of improvement are met: ≧50% increase in ClCr and no clinical milestones of worsening. Subjects are classified as “stable” if none of the clinical milestones of worsening or improvement are met.
All subjects are categorized according to the evolution of their disease (“worse”, “stable”, or “improved”). This constitutes the primary efficacy endpoint for the study and is analyzed in the Intent-to-Treat (ITT) population according to two pre-specified statistical methodologies: 1) the Cochran-Mantel-Haenszel row mean scores test (CMH test) to compare the percentage of subjects who reach each category at the end of the study in comparison to their status at Baseline, and 2) a proportional hazards regression model (Cox analysis) to compare between treatment groups both the number of first “worse” events, as well as when they occur, thus making more use of all available data. Both methodologies are adjusted for the stratification of nephrotic status at Baseline (nephrotic vs non-nephrotic) as pre-specified.
The primary efficacy endpoint is a composite assessment of clinical improvement/worsening of renal function. At the end of the study, the subjects are classified into three categories, “Worse” and death (all causes), “Stable”, or “Improved”. […] The subjects are classified as “stable” if none of the clinical milestones of worsening or improvement are met. […] The term “End of Study” is defined as Month 24 for subjects who completed the study and as the last available measurement for the subjects who discontinued early.
The secondary efficacy endpoints are an assessment of clinical improvement/worsening of both renal and gastrointestinal functions. At the end of the study, subjects are classified into three categories based on their condition: worse, stable, or improved.
This parameter will be normalized for body surface area and the least-squares estimate of the within-subject slope will be calculated using all available creatinine clearance measurements. Although the study is for 2 years, the slope will be expressed as an annual rate of change.
Change from baseline to End of Study in Proteinuria and Creatinine Clearance will be analyzed as a secondary efficacy endpoint. The End of Study is defined as Month 24 for subjects who completed and as the last available visit for subjects who discontinued early. At Screening, proteinuria, creatinine clearance, and serum creatinine are to be collected from two distinct assessments which are to have been at least 1 week apart and within 3 months prior to study entry (Baseline visit). For the creatinine clearance parameter, the normalized value will be used.

[2] = Pharmacokinetics of single rising oral doses of PDS and food effect in healthy male subjects; type: in vivo, human; conditions: for AUC(0-inf) / AUC(0-t) / Cmax / Tmax: male, po; for AUC(0-inf) / AUC(0-t) / Cmax: mean; for Tmax: median
Description: In the following examples, terms are as defined below. The pharmacokinetic parameters were derived by non-compartmental analysis using WinNonlin® (Pharsight Corp., Mountain View, Calif., USA). • Cmax—the maximum observed plasma concentration. • Tmax—the time of occurrence of Cmax. • AUC0-t—the area under the plasma concentration versus time curve from time zero to the last sampling time at which concentrations were at or above the limit of quantification, calculated by the linear trapezoidal rule. • AUC∞—the area under the plasma concentrations versus time curve from time zero to infinity, calculated from AUC0-t+(Clast/λz), where Clast is the last observed quantifiable concentration and λz is the apparent terminal rate constant. • t1/2 the apparent terminal half-life, calculated from ln 2/λz
The safety, tolerability and pharmacokinetics of PDS following single oral administration in healthy male adult volunteers is determined. The effect of food on the pharmacokinetics of PDS is also determined. The first part of the study is a randomized, double-blind, placebo-controlled study to assess the pharmacokinetic profile of 6 single rising oral doses of PDS in healthy male subjects. The second part of this study is an open-label, two-way crossover study to investigate the effect of food on the pharmacokinetic profile of a single oral dose of PDS under fasted and fed conditions. Blood samples are collected during 36 hours following dosing. Plasma concentrations of PDS are determined using validated HPLC methods. […] The extent of systemic exposure (AUC and Cmax) to PDS increases with increasing dose. […] PDS should therefore not be given concomitantly with a high fat meal.

[3] = End of the Study, compared to placebo
[4] = composite renal assessment at end of 24 month treatment, 400-1200 mg BID by ClCr, p value=0.06
[5] = human, plasma, 100 mg, single oral 100 mg, healthy male subjects, n = 6
[6] = human, plasma, 200 mg, single oral 200 mg, healthy male subjects, n = 5
[7] = human, plasma, 400 mg, single oral 400 mg, healthy male subjects, n = 5
[8] = human, plasma, 800 mg, single oral 800 mg, healthy male subjects, n = 10
[9] = human, plasma, 1600 mg, single oral 1600 mg (rising dose part), healthy male subjects, n = 5
[10] = human, plasma, 1600 mg, single oral 1600 mg, Fasted, healthy male subjects, n = 8
[11] = human, plasma, 1600 mg, single oral 1600 mg, Fed (high-fat meal), healthy male subjects, n = 8
[12] = human, plasma, 2400 mg, single oral 2400 mg, healthy male subjects, n = 5

Question: Which “mean difference in slope of creatinine clearance, treated vs. placebo” value ([1]; End of the Study) does the source give for O=S(=O)([O-])CCCS(=O)(=O)[O-].[Na+].[Na+] [PDS, 1,3-propanedisulfonic acid, disodium salt] here?
Answer: Its value is 4.7 mL/min/1.73 m^2/year.

Question: And the “median time to the first worse event” value ([1]; End of the Study, PDS treated subjects)?
Answer: The value was 14.5 months.

Question: And the “reduction in the rate of loss of renal function (slope of creatinine clearance over time)” value ([1]; End of the Study, PDS-treated vs placebo)?
Answer: Its value is 30.1%.

Question: What about the “reduction of risk of dialysis/ESRD” value [1, 3] of the same compound?
Answer: The value was 46%.

Question: What about the “reduction of risk of doubling of serum creatinine” value [1, 3] of the same compound?
Answer: The value was 59%.

Question: What about the “reduction of risk of ≧50% decrease in creatinine clearance” value [1, 3] of the same compound?
Answer: Its value is 52%.

Question: And the “median time to dialysis, longer than placebo” value ([1]; End of the Study, patients progressing to dialysis)?
Answer: The value was 5.3 months.

Question: And the “median time to doubling of serum creatinine, longer than placebo” value ([1]; End of the Study, patients with a doubling of SCr)?
Answer: Its value is 3.6 months.

Question: What about the “median time to at least a 50% decrease in creatinine clearance, longer than placebo” value ([1]; End of the Study, patients with a ≧50% decrease in CrCl) of the same compound?
Answer: Its value is 4.4 months.

Question: And the “risk of any worse event of renal decline or all-cause mortality, relative to the risk for placebo” value ([1]; End of the Study, printed as reduction to this % of the risk for placebo)?
Answer: The value was 42%.

Question: What about the “median time to the first worse event, longer than placebo” value ([1]; End of the Study, treated vs placebo) of the same compound?
Answer: Its value is 6.4 months.

Question: What about the “creatinine clearance, Change from End of Study to Baseline, Median” value ([1]; PDS group N = 89, n 85) of the same compound?
Answer: The value was −11.35 mL/min/1.73 m^2.

Question: What about the “slope of creatinine clearance normalized for body surface area, Mean (S.E.)” value ([1]; PDS group N = 89, n 85, annual rate of change) of the same compound?
Answer: Its value is −10.9 (5.1) mL/min/1.73 m^2/year.

Question: What about the “slope of creatinine clearance normalized for body surface area, Median” value ([1]; PDS group N = 89, n 85, annual rate of change, P-value vs placebo 0.025) of the same compound?
Answer: The value was −5.9 mL/min/1.73 m^2/year.

Question: What about the “creatinine clearance, Change from End of Study to Baseline, Mean (S.E.)” value ([1]; PDS group N = 89, n 85, p-value vs placebo 0.058) of the same compound?
Answer: Its value is −14.68 (4.19) mL/min/1.73 m^2.

Question: And the “fewer subjects classified as worse compared to placebo” value [1, 4]?
Answer: The value was 13.4%.

Question: What about the “more subjects stable or improved compared to placebo” value [1, 4] of the same compound?
Answer: The value was 13.4%.

Question: And the “estimated difference in CrCl change, PDS vs placebo” value ([1]; end of the study)?
Answer: Its value is 7.7 mL/min/1.73 m^2.

Question: And the “mean difference in CrCl (baseline to end of study)” value ([1]; end of the study, PDS treated subjects)?
Answer: Its value is −14.7±4.2 mL/min/1.73 m^2.

Question: What about the half-life ([2]; human, plasma, single oral doses 100-2400 mg, healthy male subjects, range of means, read-out: mean half-life (T1/2)) of the same compound?
Answer: Its half-life is 120 to 1560 min.

Question: And the AUC(0-inf) [2, 5]?
Answer: The AUC(0-inf) was 0.419 µg·h/mL.

Question: And the AUC(0-t) [2, 5]?
Answer: The AUC(0-t) was 0.24 µg·h/mL.

Question: What about the Cmax [2, 5] of the same compound?
Answer: Its Cmax is 0.0995 µg/mL.

Question: And the Tmax [2, 5]?
Answer: The Tmax was 60 min.

Question: And the AUC(0-t) [2, 6]?
Answer: Its AUC(0-t) is 0.626 µg·h/mL.

Question: And the Cmax [2, 6]?
Answer: The Cmax was 0.164 µg/mL.

Question: And the Tmax [2, 6]?
Answer: The Tmax was 60 min.

Question: What about the AUC(0-inf) [2, 7] of the same compound?
Answer: The AUC(0-inf) was 2.91 µg·h/mL.

Question: What about the AUC(0-t) [2, 7] of the same compound?
Answer: Its AUC(0-t) is 1.88 µg·h/mL.

Question: And the Cmax [2, 7]?
Answer: The Cmax was 1.08 µg/mL.

Question: What about the Tmax [2, 7] of the same compound?
Answer: Its Tmax is 30 min.

Question: What about the AUC(0-inf) [2, 8] of the same compound?
Answer: Its AUC(0-inf) is 4.55 µg·h/mL.

Question: What about the AUC(0-t) [2, 8] of the same compound?
Answer: Its AUC(0-t) is 4.84 µg·h/mL.

Question: What about the Cmax [2, 8] of the same compound?
Answer: The Cmax was 2.87 µg/mL.

Question: And the Tmax [2, 8]?
Answer: Its Tmax is 30 min.

Question: What about the AUC(0-t) [2, 9] of the same compound?
Answer: The AUC(0-t) was 8.41 µg·h/mL.

Question: What about the Cmax [2, 9] of the same compound?
Answer: The Cmax was 4.76 µg/mL.

Question: What about the Tmax [2, 9] of the same compound?
Answer: Its Tmax is 30 min.

Question: And the AUC(0-inf) [2, 10]?
Answer: The AUC(0-inf) was 12.8 µg·h/mL.

Question: And the AUC(0-t) [2, 10]?
Answer: The AUC(0-t) was 11.5 µg·h/mL.

Question: And the Cmax [2, 10]?
Answer: Its Cmax is 6.46 µg/mL.

Question: And the Tmax [2, 10]?
Answer: Its Tmax is 30 min.

Question: What about the AUC(0-inf) [2, 11] of the same compound?
Answer: Its AUC(0-inf) is 6.32 µg·h/mL.

Question: And the AUC(0-t) [2, 11]?
Answer: The AUC(0-t) was 4.01 µg·h/mL.

Question: And the Cmax [2, 11]?
Answer: Its Cmax is 0.563 µg/mL.

Question: And the Tmax [2, 11]?
Answer: Its Tmax is 135 min.

Question: What about the AUC(0-inf) [2, 12] of the same compound?
Answer: The AUC(0-inf) was 12.9 µg·h/mL.

Question: And the AUC(0-t) [2, 12]?
Answer: Its AUC(0-t) is 12 µg·h/mL.

Question: What about the Cmax [2, 12] of the same compound?
Answer: The Cmax was 6.05 µg/mL.

Question: What about the Tmax [2, 12] of the same compound?
Answer: The Tmax was 30 min.

Question: What about the “effect of food on systemic availability” value ([2]; single oral 1600 mg, fed vs fasted conditions) of the same compound?
Answer: The value was “decrease in both the rate and extent of systemic availability”.

Question: What about the “dose dependence of systemic exposure (AUC and Cmax)” value ([2]; single oral doses 100-2400 mg, healthy male subjects) of the same compound?
Answer: The value was “reasonably proportional to the administered dose”.
